Experimental findings from PMC7073924, “2-Aminomethylene-5-sulfonylthiazole Inhibitors of Lysyl Oxidase (LOX) and LOXL2 Show Significant Efficacy in Delaying Tumor Growth” (Journal of Medicinal Chemistry, 2019) are described below.

Several values for one entry are separate records, joined by “and”; a condition that tells them apart may be missing. Equal values may be shown once. Where a name gives a salt, the structure may show the parent alone.

Series [1] has as its target hERG human potassium ion channel (Homo sapiens, UniProt Q12809).
Description: hERG inhibition was determined using the “hERG human potassium ion channel cell based antagonist Qpatch assay” by Eurofins Ltd. Cell permeability was determined using the “Caco-2 permeability assay” by Cyprotex Ltd.
The target in series [2] is T1, DAO (Sus scrofa, UniProt Q9TRC7).
T1 construct: purchased Sigma
T1 sequence (Q9TRC7 25-755): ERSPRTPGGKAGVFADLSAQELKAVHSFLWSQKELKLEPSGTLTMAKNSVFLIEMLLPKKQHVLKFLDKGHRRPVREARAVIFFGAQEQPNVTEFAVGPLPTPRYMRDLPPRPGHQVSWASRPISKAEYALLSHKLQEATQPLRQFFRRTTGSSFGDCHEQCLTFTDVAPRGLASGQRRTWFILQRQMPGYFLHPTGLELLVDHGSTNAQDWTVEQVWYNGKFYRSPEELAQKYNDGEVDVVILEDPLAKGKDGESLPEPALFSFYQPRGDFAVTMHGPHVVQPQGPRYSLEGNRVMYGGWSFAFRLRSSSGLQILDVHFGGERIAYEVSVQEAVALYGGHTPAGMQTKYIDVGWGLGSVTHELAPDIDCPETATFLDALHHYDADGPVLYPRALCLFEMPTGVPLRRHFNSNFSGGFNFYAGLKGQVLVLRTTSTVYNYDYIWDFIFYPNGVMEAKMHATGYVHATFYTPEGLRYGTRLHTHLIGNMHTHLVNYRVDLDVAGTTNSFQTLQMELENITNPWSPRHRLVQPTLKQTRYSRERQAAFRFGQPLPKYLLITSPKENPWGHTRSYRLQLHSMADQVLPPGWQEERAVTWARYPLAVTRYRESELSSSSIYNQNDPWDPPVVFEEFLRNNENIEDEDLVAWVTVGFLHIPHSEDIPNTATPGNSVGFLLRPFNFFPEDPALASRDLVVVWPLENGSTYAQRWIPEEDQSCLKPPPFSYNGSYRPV
It is filed as biochemical. The settings on record: Table 7.
Description: (§1) All amine oxidase assays were performed with concentrations as above. MAO-A and MAO-B enzymes were purchased from Sigma. The catalytic activity of MAO-A and MAO-B was determined using the Promega MAO-Glo assay kit (substrate included), with clorgyline and deprenyl as reference inhibitor controls, respectively. DAO was purchased from Sigma, and the catalytic activity was determined using the Promega ROS-Glo assay kit, with aminoguanidine as the reference inhibitor control. SSAO was purchased from Sigma. SSAO catalytic activity was determined using the Promega MAO-Glo assay kit, with mofegiline as the reference inhibitor control.

Series [3] can be described thus: MLM stability assay. It is filed as in vitro ADME. To be noted: mouse liver microsomes; percentage of compound remaining after 30 min; 10 μM. A general note: Liver microsomes are a subcellular fraction often used to study metabolism.
Description: Mouse liver microsomes (CD1 female; M1500) and rat liver microsomes (Sprague Dawley female; R1500) were purchased from Tebu-bio, and the assay was performed by methods previously described.[21] Inhibitors at 10 μM concentration incubated with the microsomes were assessed at 0, 15, and 30 min. Control samples containing no microsomes and no cofactors were also assessed at 0 and 30 min. Samples were extracted by protein precipitation, and centrifugation for 20 min in a refrigerated centrifuge (4 °C) at 3700 rpm. The supernatant was analyzed by LC–MS/MS for % metabolized over time.
Series [4] has as its target T2, MAO-A (Homo sapiens, UniProt P21397).
T2 construct: purchased Sigma
T2 sequence (P21397 1-527): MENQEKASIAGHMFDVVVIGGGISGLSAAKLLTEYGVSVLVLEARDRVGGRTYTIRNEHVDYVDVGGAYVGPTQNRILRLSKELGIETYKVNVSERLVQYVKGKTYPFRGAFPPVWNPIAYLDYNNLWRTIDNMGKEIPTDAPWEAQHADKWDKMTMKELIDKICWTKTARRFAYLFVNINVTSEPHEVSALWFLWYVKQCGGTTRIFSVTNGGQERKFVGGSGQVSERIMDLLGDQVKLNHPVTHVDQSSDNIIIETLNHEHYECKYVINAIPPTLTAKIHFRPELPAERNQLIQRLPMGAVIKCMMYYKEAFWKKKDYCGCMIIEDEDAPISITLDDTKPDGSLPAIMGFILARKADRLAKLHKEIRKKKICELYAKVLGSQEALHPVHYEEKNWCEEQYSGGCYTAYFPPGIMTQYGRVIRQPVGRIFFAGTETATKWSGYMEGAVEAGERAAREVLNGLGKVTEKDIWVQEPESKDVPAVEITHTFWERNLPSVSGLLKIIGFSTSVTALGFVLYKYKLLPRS
In kind it is biochemical. The settings on record: Table 7.
Description: as §1

Series [5] has as its target T3, MAO-B (Homo sapiens, UniProt P27338).
T3 construct: purchased Sigma
T3 sequence (P27338 1-520): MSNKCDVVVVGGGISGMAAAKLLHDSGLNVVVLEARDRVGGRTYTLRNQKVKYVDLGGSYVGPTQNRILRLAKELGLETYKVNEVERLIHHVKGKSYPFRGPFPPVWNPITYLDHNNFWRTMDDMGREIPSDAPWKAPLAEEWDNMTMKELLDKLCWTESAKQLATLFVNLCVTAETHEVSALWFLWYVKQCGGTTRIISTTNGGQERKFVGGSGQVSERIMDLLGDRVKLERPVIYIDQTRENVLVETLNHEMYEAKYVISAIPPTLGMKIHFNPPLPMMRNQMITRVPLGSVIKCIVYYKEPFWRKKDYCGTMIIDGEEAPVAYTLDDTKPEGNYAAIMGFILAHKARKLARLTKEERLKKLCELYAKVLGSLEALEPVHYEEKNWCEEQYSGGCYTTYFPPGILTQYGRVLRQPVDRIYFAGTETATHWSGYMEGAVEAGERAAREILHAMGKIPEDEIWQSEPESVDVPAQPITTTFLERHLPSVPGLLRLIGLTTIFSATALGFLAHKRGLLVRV
It is filed as biochemical. To be noted: Table 7.
Description: as §1

Series [6] has as its target T4, SSAO (Homo sapiens, UniProt Q16853).
T4 construct: purchased Sigma
T4 sequence (Q16853 1-763): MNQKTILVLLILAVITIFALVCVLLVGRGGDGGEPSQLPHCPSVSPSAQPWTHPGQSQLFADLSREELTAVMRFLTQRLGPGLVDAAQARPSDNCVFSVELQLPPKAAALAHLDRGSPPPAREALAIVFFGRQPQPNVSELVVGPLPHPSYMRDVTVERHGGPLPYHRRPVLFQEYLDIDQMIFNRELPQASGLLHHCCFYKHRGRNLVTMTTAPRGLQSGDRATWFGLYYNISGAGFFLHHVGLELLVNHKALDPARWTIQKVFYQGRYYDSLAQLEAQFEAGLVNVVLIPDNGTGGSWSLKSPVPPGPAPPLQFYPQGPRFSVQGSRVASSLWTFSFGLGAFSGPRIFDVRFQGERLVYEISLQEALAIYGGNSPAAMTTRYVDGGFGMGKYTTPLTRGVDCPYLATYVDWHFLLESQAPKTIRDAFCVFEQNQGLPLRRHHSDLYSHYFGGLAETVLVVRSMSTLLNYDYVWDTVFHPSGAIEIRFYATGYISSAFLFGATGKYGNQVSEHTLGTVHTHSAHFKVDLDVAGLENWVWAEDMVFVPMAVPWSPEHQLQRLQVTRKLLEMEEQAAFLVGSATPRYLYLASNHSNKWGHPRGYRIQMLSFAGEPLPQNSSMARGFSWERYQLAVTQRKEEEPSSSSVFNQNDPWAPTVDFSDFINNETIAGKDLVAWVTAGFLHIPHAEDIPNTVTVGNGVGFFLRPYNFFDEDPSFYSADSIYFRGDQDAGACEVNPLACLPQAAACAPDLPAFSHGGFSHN
It is filed as biochemical. To be noted: Table 7.
Description: as §1

A short description of series [7]: In vivo PK, mouse. The settings on record: single po dose 50 mg/kg.
Excerpt: Female Balb/C or CD1 nude mice (Charles River Laboratories) at 6 weeks of age were used for the mouse PK analyses. […] Three mice were used per time-point per route; average values are reported. They were placed under halothane or isoflurane anesthesia, and blood for plasma preparation was taken by terminal cardiac puncture into heparinized syringes.

Sequence of hERG human potassium ion channel (Q12809 whole entry): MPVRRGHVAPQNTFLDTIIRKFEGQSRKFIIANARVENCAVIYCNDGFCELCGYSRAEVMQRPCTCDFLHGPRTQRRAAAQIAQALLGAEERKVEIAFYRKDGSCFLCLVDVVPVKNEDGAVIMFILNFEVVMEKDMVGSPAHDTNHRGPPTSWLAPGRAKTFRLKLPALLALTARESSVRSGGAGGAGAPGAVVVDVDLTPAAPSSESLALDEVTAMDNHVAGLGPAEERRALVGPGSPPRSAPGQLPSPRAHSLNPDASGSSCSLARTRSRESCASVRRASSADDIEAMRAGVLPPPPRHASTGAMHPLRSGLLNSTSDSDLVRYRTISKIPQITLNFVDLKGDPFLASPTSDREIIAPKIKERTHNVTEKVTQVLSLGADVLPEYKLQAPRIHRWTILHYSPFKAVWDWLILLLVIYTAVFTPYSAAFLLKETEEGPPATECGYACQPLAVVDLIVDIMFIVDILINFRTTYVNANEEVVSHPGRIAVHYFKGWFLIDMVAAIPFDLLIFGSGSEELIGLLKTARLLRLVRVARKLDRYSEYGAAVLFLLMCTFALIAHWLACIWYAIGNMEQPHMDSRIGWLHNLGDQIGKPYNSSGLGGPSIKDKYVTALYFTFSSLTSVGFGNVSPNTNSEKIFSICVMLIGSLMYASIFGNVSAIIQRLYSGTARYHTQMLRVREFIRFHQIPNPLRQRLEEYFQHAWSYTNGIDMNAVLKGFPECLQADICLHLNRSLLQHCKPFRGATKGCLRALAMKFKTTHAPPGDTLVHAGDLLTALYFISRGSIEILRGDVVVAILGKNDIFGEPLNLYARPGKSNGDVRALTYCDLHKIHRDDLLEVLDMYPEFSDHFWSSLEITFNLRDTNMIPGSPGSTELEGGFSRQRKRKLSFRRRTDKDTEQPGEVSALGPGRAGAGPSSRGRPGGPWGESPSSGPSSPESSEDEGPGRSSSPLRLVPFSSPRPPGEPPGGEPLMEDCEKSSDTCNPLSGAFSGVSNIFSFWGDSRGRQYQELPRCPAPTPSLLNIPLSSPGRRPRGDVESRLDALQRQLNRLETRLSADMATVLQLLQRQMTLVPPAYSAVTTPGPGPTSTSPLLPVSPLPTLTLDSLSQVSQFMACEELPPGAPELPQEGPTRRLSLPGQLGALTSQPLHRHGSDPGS

In the case of `Cn1cc(-c2cc(F)cc(S(=O)(=O)c3cnc(CN)s3)c2)cn1` [Compound 21e, (5-((3-Fluoro-5-(1-methyl-1H-pyrazol-4-yl)phenyl)sulfonyl)thiazol-2-yl)methanamine Hydrochloride], the IC50 in series [1] was 66 µM; in series [2] it was 21.3 µM and 22.5 µM; in series [4], 61.7 µM and 66.8 µM; in series [5] it was greater than 100 µM; in series [6], 36.3 µM and 40.3 µM. For the same molecule, the “MLM stability (%)” value in series [3] amounted to 90%. Moreover, the “AUC(PO)” value in series [7] (mouse plasma) was found to be 4.48 µM·h. For the same molecule, in series [7] (mouse plasma), the concentration peaked (Cmax) at 9.75 µM. Besides, the “t1/2(PO)” value in series [7] (mouse) was 2.0 h.

The IC50 is the concentration at which inhibition is half-maximal. The low end stands for greater potency in that assay, the high end for weaker potency in that assay. A word on the Cmax: it is the peak of the concentration-time curve.
